These results are taken from US4369191A, “Naphthalenetetrayltetrakis(sulfonylimino)-tetrabenzene di- and tricarboxylic acids” (American Cyanamid Company, priority 1981, dated 1983).

One test addresses T1, activated human C1 (Homo sapiens, UniProt P09871).
T1 construct: fluid-phase human C2 as substrate in presence of C4
In words: Test Code 026 (C1 inhibitor). Particulars: in vitro; serial twofold dilution assay, higher well number indicates higher activity. It counts as biochemical. The source says: (§1) An active inhibitor protects C2 from C1 and C4; (ii) Test Code 035 (C3-C9 inhibitor)--This test determines the ability of the late components of human complement (C3-C9) to lyse EAC 142 in the presence of appropriate dilutions of the test compound. An active inhibitor protects EAC 142 from lysis by human C3-C9; (iii) Test Code 036 (C-Shunt inhibitor)--In this test human erythrocytes rendered fragile are lysed in autologous serum via the shunt pathway activated by cobra venom factor in the presence of appropriate dilutions of the test compound. Inhibition of the shunt pathway results in failure of lysis; (iv) Cap 50 Test--Here, appropriate amounts of the test compound are added to a pool of guinea pig serum in vitro, after which the undiluted serum capillary tube assay of U.S. Pat. No. 3,876,376 is run. The concentration of compound inhibiting 50% is reported; and (v) Guinea Pig Intraperitoneal Test (GPIP)--Guinea pigs weighing about 300 g are dosed intraperitoneally (i.p.) with 200 mg/kg of the test compound dissolved in saline and adjusted to pH 7-8. […] Percent inhibition is calculated by comparison with simultaneous controls. […]

For test [1], the system named is late components of human complement (C3-C9). In words: Test Code 035 (C3-C9 inhibitor), lysis of EAC 142. It counts as biochemical. The note with it: in vitro; serial twofold dilution assay, higher well number indicates higher activity.
Excerpt: as §1

The subject of the next test is shunt pathway. The test is described as follows: Test Code 036 (C-Shunt inhibitor), lysis of human erythrocytes in autologous serum activated by cobra venom factor. Format: cell-based. Particulars: in vitro; serial twofold dilution assay, higher well number indicates higher activity.
Excerpt: as §1

For a further test, the system named is complement activity. The test is described as follows: Guinea Pig Intraperitoneal Test (GPIP). It counts as in vivo. The note with it: 200 mg/kg i.p.; for In vivo Activity (Guinea Pigs) % Inhibition Intraperitoneal, 30 minutes: serum complement activity 30 minutes after injection; for In vivo Activity (Guinea Pigs) % Inhibition Intraperitoneal, 60 minutes: serum complement activity 60 minutes after injection; for In vivo Activity (Guinea Pigs) % Inhibition Intraperitoneal, 120 minutes: serum complement activity 120 minutes after injection. An excerpt: An active inhibitor protects C2 from C1 and C4; (ii) Test Code 035 (C3-C9 inhibitor)--This test determines the ability of the late components of human complement (C3-C9) to lyse EAC 142 in the presence of appropriate dilutions of the test compound. An active inhibitor protects EAC 142 from lysis by human C3-C9; (iii) Test Code 036 (C-Shunt inhibitor)--In this test human erythrocytes rendered fragile are lysed in autologous serum via the shunt pathway activated by cobra venom factor in the presence of appropriate dilutions of the test compound. Inhibition of the shunt pathway results in failure of lysis; (iv) Cap 50 Test--Here, appropriate amounts of the test compound are added to a pool of guinea pig serum in vitro, after which the undiluted serum capillary tube assay of U.S. Pat. No. 3,876,376 is run. The concentration of compound inhibiting 50% is reported; and (v) Guinea Pig Intraperitoneal Test (GPIP)--Guinea pigs weighing about 300 g are dosed intraperitoneally (i.p.) with 200 mg/kg of the test compound dissolved in saline and adjusted to pH 7-8. Approximately 0.4 ml blood samples, taken by orbital sinus puncture 30 minutes and one hour after injections, are collected directly into centrifuge tubes; 5 ml blood samples, taken by decapitation 2 hours after injection are collected directly into diSPo® beakers. The samples were allowed to clot, centrifuged, and the resultant sera were assayed for complement activity using the capillary complement assay. Percent inhibition is calculated by comparison with simultaneous controls. The results of the GPIP appear in Table I together with results of Test Code 026, 035, 036 and Cap 50.

Counter-ions that a name gives are not always drawn.

T1 sequence (P09871 16-688): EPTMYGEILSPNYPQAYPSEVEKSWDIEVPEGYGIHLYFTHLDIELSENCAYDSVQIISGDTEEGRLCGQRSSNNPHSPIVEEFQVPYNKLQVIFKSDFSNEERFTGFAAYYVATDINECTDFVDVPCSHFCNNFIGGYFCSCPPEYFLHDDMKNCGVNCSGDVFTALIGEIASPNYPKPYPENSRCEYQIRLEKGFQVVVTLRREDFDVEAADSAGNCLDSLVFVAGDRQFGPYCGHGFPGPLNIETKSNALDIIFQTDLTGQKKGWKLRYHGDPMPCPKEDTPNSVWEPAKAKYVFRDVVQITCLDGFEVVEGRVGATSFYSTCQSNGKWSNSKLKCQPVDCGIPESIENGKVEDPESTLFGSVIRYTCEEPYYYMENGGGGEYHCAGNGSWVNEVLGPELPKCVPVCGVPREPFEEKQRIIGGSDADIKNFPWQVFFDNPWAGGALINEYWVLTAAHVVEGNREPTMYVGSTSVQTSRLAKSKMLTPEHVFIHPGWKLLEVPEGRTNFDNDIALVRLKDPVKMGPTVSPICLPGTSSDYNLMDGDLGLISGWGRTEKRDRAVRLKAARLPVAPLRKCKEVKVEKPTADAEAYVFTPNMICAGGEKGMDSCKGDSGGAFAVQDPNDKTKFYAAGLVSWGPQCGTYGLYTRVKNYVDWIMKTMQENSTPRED
T1 sequence (P00736 18-705 partner): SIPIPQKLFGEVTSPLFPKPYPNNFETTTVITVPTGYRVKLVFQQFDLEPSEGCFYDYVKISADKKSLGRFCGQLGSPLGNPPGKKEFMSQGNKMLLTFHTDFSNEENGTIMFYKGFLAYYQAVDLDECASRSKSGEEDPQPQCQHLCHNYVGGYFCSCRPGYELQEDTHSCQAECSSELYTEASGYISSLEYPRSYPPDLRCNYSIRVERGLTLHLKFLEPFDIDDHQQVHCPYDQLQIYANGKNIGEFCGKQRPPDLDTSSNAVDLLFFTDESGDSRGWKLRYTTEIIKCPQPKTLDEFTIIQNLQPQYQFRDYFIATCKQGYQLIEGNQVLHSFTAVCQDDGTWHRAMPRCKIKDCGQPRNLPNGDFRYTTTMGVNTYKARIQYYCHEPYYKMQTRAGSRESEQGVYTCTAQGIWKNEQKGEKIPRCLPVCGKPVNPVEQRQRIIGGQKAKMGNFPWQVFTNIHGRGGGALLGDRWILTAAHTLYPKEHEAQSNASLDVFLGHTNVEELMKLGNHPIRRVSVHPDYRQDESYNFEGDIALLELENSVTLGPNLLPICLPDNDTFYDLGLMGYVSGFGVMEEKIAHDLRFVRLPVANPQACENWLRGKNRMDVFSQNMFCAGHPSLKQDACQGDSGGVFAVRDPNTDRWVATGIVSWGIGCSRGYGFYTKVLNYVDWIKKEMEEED
T1 sequence (P02745 23-245 partner): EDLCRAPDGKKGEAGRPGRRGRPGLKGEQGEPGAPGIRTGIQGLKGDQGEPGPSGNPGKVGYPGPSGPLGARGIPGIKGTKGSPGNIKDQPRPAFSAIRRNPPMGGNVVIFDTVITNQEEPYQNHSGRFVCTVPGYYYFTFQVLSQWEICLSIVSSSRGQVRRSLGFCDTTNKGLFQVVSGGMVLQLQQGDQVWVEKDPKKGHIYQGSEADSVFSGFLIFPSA
T1 sequence (P02746 28-253 partner): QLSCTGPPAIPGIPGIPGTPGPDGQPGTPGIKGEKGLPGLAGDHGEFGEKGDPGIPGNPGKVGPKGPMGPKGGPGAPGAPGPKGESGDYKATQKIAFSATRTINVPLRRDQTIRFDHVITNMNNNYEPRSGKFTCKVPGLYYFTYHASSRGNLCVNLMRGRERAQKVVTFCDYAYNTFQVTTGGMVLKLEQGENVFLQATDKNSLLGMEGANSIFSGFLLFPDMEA
T1 sequence (P02747 29-245 partner): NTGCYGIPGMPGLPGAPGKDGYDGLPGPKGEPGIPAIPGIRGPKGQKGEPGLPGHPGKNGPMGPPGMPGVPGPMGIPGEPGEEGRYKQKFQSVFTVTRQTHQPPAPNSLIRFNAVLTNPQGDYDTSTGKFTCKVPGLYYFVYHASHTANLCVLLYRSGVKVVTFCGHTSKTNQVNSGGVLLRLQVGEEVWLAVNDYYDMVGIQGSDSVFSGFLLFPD

With `O=C([O-])c1cc(NS(=O)(=O)c2cc(S(=O)(=O)Nc3cc(C(=O)[O-])cc(C(=O)[O-])c3)c3cc(S(=O)(=O)Nc4cc(C(=O)[O-])cc(C(=O)[O-])c4)cc(S(=O)(=O)Nc4cc(C(=O)[O-])cc(C(=O)[O-])c4)c3c2)cc(C(=O)[O-])c1.[Na+].[Na+].[Na+].[Na+].[Na+].[Na+].[Na+].[Na+]` [5,5',5",5"'-[1,3,5,7-Naphthalenetetrayltetrakis(sulfonylimino)]tetraisophthalic acid, octasodium salt], the “Cl 026* Wells” value at activated human C1 came out at 7 Wells. Besides, in test [1], the “C-Late 035* Wells” value is listed as 2 Wells. The “C-Shunt Inhibition 036* Wells” value in the test with shunt pathway is reported as 6 Wells. For the same compound, in the test on complement activity, the “In vivo Activity (Guinea Pigs) % Inhibition Intraperitoneal, 30 minutes” value is on record as 66%; the “In vivo Activity (Guinea Pigs) % Inhibition Intraperitoneal, 60 minutes” value is recorded as 71%; the “In vivo Activity (Guinea Pigs) % Inhibition Intraperitoneal, 120 minutes” value came out at 76%.

For `O=C(O)c1cc(NS(=O)(=O)c2cc(S(=O)(=O)Nc3cc(C(=O)O)c(C(=O)O)c(C(=O)O)c3)c3cc(S(=O)(=O)Nc4cc(C(=O)O)c(C(=O)O)c(C(=O)O)c4)cc(S(=O)(=O)Nc4cc(C(=O)O)c(C(=O)O)c(C(=O)O)c4)c3c2)cc(C(=O)O)c1C(=O)O` [5,5',5",5'"-[1,3,5,7-Naphthalenetetrayltetrakis(sulfonylimino)]tetra-1,2,3-benzenetricarboxylic acid, dodecasodium salt], the “Cl 026* Wells” value at activated human C1 was 8 Wells. For the same compound, the “C-Late 035* Wells” value in test [1] is 5 Wells. In addition, in the test on shunt pathway, the “C-Shunt Inhibition 036* Wells” value turned out to be 5 Wells. Also, in the test on complement activity, the “In vivo Activity (Guinea Pigs) % Inhibition Intraperitoneal, 30 minutes” value is reported as 80%; the “In vivo Activity (Guinea Pigs) % Inhibition Intraperitoneal, 60 minutes” value was determined as 77%; the “In vivo Activity (Guinea Pigs) % Inhibition Intraperitoneal, 120 minutes” value stood at 85%.
